From US20220112204A1, “SUBSTITUTED DIHYDROPYRANOPYRIMIDINE COMPOUNDS AS KRAS INHIBITORS” (ACCUTAR BIOTECHNOLOGY INC., priority 2020, published 2022)

Key:
KRAS-G12C mutant [1] = molecular target: T1, KRAS-G12C mutant (Homo sapiens, UniProt P01116, G12C); assay: Gel shift assay (SDS-PAGE) for covalent modification of KRAS G12C; format: binding; conditions: 0.5 μM compound, 1 μM GDP-bound KRAS G12C, 25° C., 5 minutes, shift indicative of covalent cysteine conjugation
Experimental: 0.5 μM compounds were incubated with 1 μM GDP-bound untagged KRAS (G12C or wild type) proteins at 25° C. for 5 minutes in 40 μl reaction buffer (50 mM Tris, pH 7.5, 100 mM NaCl, 1 mM MgCl2, 1 mM DTT). The reactions were quenched with 10 μI SDS-PAGE sample loading buffer (250 mM Tris-HCl, pH 6.8, 10% SDS, 0.5% bromophenol blue, 50% glycerol and 50 mM DTT) and then analyzed via SDS-PAGE using 4%-20% gradient polyacrylamide gel followed by Coomassie blue stain.
FIG. 1 illustrates mobility change of KRAS-G12C mutant or wild type proteins on SDS-PAGE after 5 minutes of coincubation at 25° C. with exemplary compounds of the present disclosure, indicative of covalent cysteine conjugation.
Table 3 summarizes molecular weight shift of KRAS-G12C mutant on SDS-PAGE after 5 mins of coincubation at 25° C. with exemplary compounds of the present disclosure, indicative of covalent cysteine conjugation.

KRAS-G12C mutant [2] = molecular target: T1, KRAS-G12C mutant; assay: TR-FRET assay of SOS1-assisted KRAS GDP/GTP exchange; format: biochemical
Experimental: GDP form of 6*His tagged KRAS-G12C was diluted to 40 nM and incubated with 8 nM LanthaScreen™ Elite Terbium-anti-HIS Antibody (Thermo, catalog number PV5863) in reaction buffer containing 20 mM Tris, pH 7.5, 100 mM NaCl, 1 mM DTT, 0.1% Tween20, 0.05% BSA, 2% DMSO, 1 mM MgCl2. After 1 hour-incubation at 4° C., proteins were placed in 384 well plate (PerkinElmer, PROXIPLATE-384 PLUS). Then compounds with different concentrations were added to the proteins. BODIPY labeled GTP (Thermo, catalog number G12411) and SOS-1 (or reaction buffer as control) were then added to reactions at 200 nM and 1 μM to trigger the exchange of GDP to BODIPY-GTP. TR-FRET emission signals were determined at 520 nm and 620 nm on a Envision® Multilabel Plate Reader (PerkinElmer) using a 337 nm laser as light source. All data were analyzed and plotted using Graph Pad Prism software (version 8.0.1). Raw TR-FRET data were converted to percentage of inhibition (relative to DMSO) using the following equations: […]
b) For a given test compound concentration X:
Signal (X)=Emission ratio (SOS-1 & GTP)—Emission ratio (buffer & GTP)
c) Percentage of inhibition at concentration X=[1−Signal(X)/Signal (DMSO)]*100%
The […] values were determined by nonlinear regression of plots of [inhibitor] vs. percentage of inhibition with variable slope. Table 4 summarizes inhibition of SOS1-assisted GDP/GTP exchanging activity of KRAS-G12C mutant with exemplary compounds of the present disclosure.

[3] = tested on: phospho-ERK1/2 (Thr202/Tyr204) in MIA PaCa-2 cell line; assay: pERK and ERK Western blot analysis, MIA PaCa-2; format: cell-based; conditions: Homo sapiens; MIA PaCa-2 cell line, 4 hours after incubation; read-out: 2D pERK IC50
Experimental: MIA PaCa-2 (ATCC), NCI-H358 (ATCC), NCI-H23 (ATCC), SW837 and A549 (ATCC) cells were plated in 24-well plates at 2×10^5cells/well in RPMI growth medium containing 10% FBS and 1× Penicillin Streptomycin. They were then incubated at 37° C. overnight. The following day, the test compound was administered to the cells by using 1000× compound stock solution prepared in DMSO at various concentrations. After administration of the compound, the cells were then incubated at 37° C. for 4 hours. Upon completion, the cells were washed with PBS and protein was collected in Laemmli sample buffer (1×; VWR International). Proteins in cell lysate were separated by SDS-PAGE and transferred to Odyssey nitrocellulose membranes (Licor) with iblot® dry blotting transfer system (ThermoFisher). Nonspecific binding was blocked by incubating membranes with Intercept Blocking Buffer (Licor) for 1 hour at room temperature with gentle shaking. The membranes were then incubated overnight at 4° C. with primary antibodies rabbit anti-phospho p44/42 MAPK (Erk1/2) (1:2,000, Cell Signaling, 4370) and mouse anti-p44/42 MAPK (Erk1/2) (1:1,000, Cell Signaling, 4696) diluted in Intercept Blocking Buffer containing 0.1% Tween 20. After washing 3 times with TBS-T, the membranes were incubated with IRDye® 800CW goat anti-rabbit IgG (1:20,000, Licor) or IRDye® 680CW goat anti-mouse IgG (1:20,000, Licor) for 1 hour. After TBS-T washes, membranes were rinsed in TBS and scanned on Odyssey® CLx Imaging System (Licor). The bands were quantified using Image Studio™ Software (Licor).

MIA PaCa-2 cell line = assay: 3D cell growth assay (CellTiter-Glo), MIA PaCa-2; format: cell-based; conditions: Homo sapiens, MIA PaCa-2, 144 h, MIA PaCa-2 cell line, 6 days, 3D cell culture; read-out: 3D growth inhibition GI50
Experimental: MIA PaCa-2 (ATCC), NCI-H358 (ATCC), NCI-H23 (ATCC), SW837 and A549 (ATCC) cells were plated in round bottom 96-well spheroid microplates (Corning, 4520) at 3000 cells/well in 90 ul of RPMI growth medium containing 10% FBS and 1% Penicillin Streptomycin. Cells were incubated at 37° C. overnight. The following day, the test compound was administered to the cells by using 10× compound stock solution prepared in growth medium at various concentrations. After administration of the compound, cells were then incubated at 37° C. for 6 days. Before CellTiter-Glo assay, the plates were equilibrated at room temperature for approximately 10 minutes. 100 ul of CellTiter-Glo® Reagent (Promega, G7573) was added to each well. The plates were then incubated at room temperature for 10 minutes and luminescence was recorded by EnSpire plate reader (PerkinElmer). Table 6 illustrates growth inhibition (G150) by exemplary compounds 1-10 of the present disclosure in a MIA PaCa-2 cell line 6 days after administration in 3D cell culture. A: >0.1 nM and <1 nM; B: >=1 nM and <10 nM; C: >=10 nM and <100 nM; D: >100 nM.

| KRAS-G12C molecular weight shift (KRAS-G12C mutant [1]) | IC50 (KRAS-G12C mutant [2]) | IC50 [3] | GI50 (MIA PaCa-2 cell line) | SMILES |
| --- | --- | --- | --- | --- |
| Yes | 70 nM | 10 to 100 nM | 1 to 10 nM | C=C(F)C(=O)N1CCN(c2nc(OCC34CCCN3CCC4)nc3c2COC(c2cccc4cccc(C)c24)C3)C[C@@H]1CC#N (stereo partly drawn) [Compound 56, 2-((2S)-1-(2-fluoroacryloyl)-4-(7-(8-methylnaphthalen-1-yl)-2-((tetrahydro-1H-pyrrolizin-7a(5H)-yl)methoxy)-7,8-dihydro-5H-pyrano[4,3-d]pyrimidin-4-yl)piperazin-2-yl)acetonitrile] |
| – | 1 nM | 10 to 100 nM | 10 to 100 nM | C=CC(=O)N1CCN(c2nc(OC[C@@H]3C[C@H](F)CN3C)nc3c2CO[C@H](c2cccc4ccccc24)C3)C[C@@H]1CC#N [Compound 9, 2-((S)-1-acryloyl-4-((S)-2-(((2S,4S)-4-fluoro-1-methylpyrrolidin-2-yl)methoxy)-7-(naphthalen-1-yl)-7,8-dihydro-5H-pyrano[4,3-d]pyrimidin-4-yl)piperazin-2-yl)acetonitrile] |
| Yes | 45 nM | 1 to 10 nM | 1 to 10 nM | C=C(F)C(=O)N1CCN(c2nc(OCC34CCCN3CCC4)nc3c2COC(c2cccc4cccc(Cl)c24)C3)C[C@@H]1CC#N (stereo partly drawn) [Compound 53, 2-((2S)-4-(7-(8-chloronaphthalen-1-yl)-2-((tetrahydro-1H-pyrrolizin-7a(5H)-yl)methoxy)-7,8-dihydro-5H-pyrano[4,3-d]pyrimidin-4-yl)-1-(2-fluoroacryloyl)piperazin-2-yl)acetonitrile] |
| Yes | 40 nM | 1 to 10 nM | 0.1 to 1 nM | C=C(F)C(=O)N1CCN(c2nc(OC[C@@]34CCCN3C[C@H](F)C4)nc3c2COC(c2cccc4cccc(Cl)c24)C3)C[C@@H]1CC#N (stereo partly drawn) [Compound 62, 2-((2S)-4-(7-(8-chloronaphthalen-1-yl)-2-(((2R,7aS)-2-fluorotetrahydro-1H-pyrrolizin-7a(5H)-yl)methoxy)-7,8-dihydro-5H-pyrano[4,3-d]pyrimidin-4-yl)-1-(2-fluoroacryloyl)piperazin-2-yl)acetonitrile] |
| Yes | 112 nM | 10 to 100 nM | 10 to 100 nM | C=C(F)C(=O)N1CCN(c2nc(OCC3(CN4CCCC4)CC3)nc3c2CO[C@H](c2cccc4cccc(Cl)c24)C3)C[C@@H]1CC#N (single isomer, unassigned) [Compound 73] |
| – | 77 nM | 10 to 100 nM | 1 to 10 nM | C=CC(=O)N1CCN(c2nc(OC[C@@H]3CCCN3C)nc3c2COC(c2cccc4ccccc24)C3)C[C@@H]1CC#N (stereo partly drawn) [Compound 2, 2-((2S)-1-acryloyl-4-(2-(((S)-1-methylpyrrolidin-2-yl)methoxy)-7-(naphthalen-1-yl)-7,8-dihydro-5H-pyrano[4,3-d]pyrimidin-4-yl)piperazin-2-yl)acetonitrile] |
| Yes | 209 nM | 10 to 100 nM | 10 to 100 nM | C=C(F)C(=O)N1CCN(c2nc(OCC3(CN4CCCC4)CC3)nc3c2COC(c2cccc4cccc(Cl)c24)C3)C[C@@H]1CC#N (mixture of isomers) [Compound 71, 2-((2S)-4-(7-(8-chloronaphthalen-1-yl)-2-((1-(pyrrolidin-1-ylmethyl)cyclopropyl)methoxy)-7,8-dihydro-5H-pyrano[4,3-d]pyrimidin-4-yl)-1-(2-fluoroacryloyl)piperazin-2-yl)acetonitrile] |
| Yes | 78 nM | 10 to 100 nM | 10 to 100 nM | C=C(F)C(=O)N1CCN(c2nc(OCC34CCCN3CCC4)nc3c2[C@H](C)O[C@H](c2cccc4c2CCCC4)C3)C[C@@H]1CC#N [Compound 61, 2-((S)-1-(2-fluoroacryloyl)-4-((5S,7S)-5-methyl-2-((tetrahydro-1H-pyrrolizin-7a(5H)-yl)methoxy)-7-(5,6,7,8-tetrahydronaphthalen-1-yl)-7,8-dihydro-5H-pyrano[4,3-d]pyrimidin-4-yl)piperazin-2-yl)acetonitrile] |
| Yes | 19 nM | 10 to 100 nM | 1 to 10 nM | C=C(F)C(=O)N1CCN(c2nc(OCC34CCCN3CCC4)nc3c2CO[C@H](c2cccc4cccc(C)c24)C3)C[C@@H]1CC#N (single isomer, unassigned) [Compound 58] |
| No | 6930 nM | > 100 nM | 10 to 100 nM | C=C(F)C(=O)N1CCN(c2nc(OC[C@@]34CCCN3C[C@H](F)C4)nc3c2CO[C@@H](c2cccc4cccc(Cl)c24)C3)C[C@@H]1CC#N (single isomer, unassigned) [Compound 63] |
| – | 238 nM | 1 to 10 nM | 10 to 100 nM | C=CC(=O)N1CCN(c2nc(OC[C@@H]3C[C@@H](F)CN3C)nc3c2COC(c2cccc4ccccc24)C3)C[C@@H]1CC#N (stereo partly drawn) [Compound 8, 2-((2S)-1-acryloyl-4-(2-(((2S,4R)-4-fluoro-1-methylpyrrolidin-2-yl)methoxy)-7-(naphthalen-1-yl)-7,8-dihydro-5H-pyrano[4,3-d]pyrimidin-4-yl)piperazin-2-yl)acetonitrile] |
| – | 19 nM | 0.1 to 1 nM | 1 to 10 nM | C=CC(=O)N1CCN(c2nc(OC[C@@H]3CCCN3C)nc3c2CO[C@H](c2cccc4cccc(Cl)c24)C3)C[C@@H]1CC#N [Compound 7, 2-((S)-1-acryloyl-4-((S)-7-(8-chloronaphthalen-1-yl)-2-(((S)-1-methylpyrrolidin-2-yl)methoxy)-7,8-dihydro-5H-pyrano[4,3-d]pyrimidin-4-yl)piperazin-2-yl)acetonitrile] |
| – | 49 nM | 1 to 10 nM | 1 to 10 nM | C=CC(=O)N1CCN(c2nc(OC[C@@H]3CCCN3C)nc3c2CO[C@H](c2cccc4ccccc24)C3)C[C@@H]1CC#N [Compound 4, 2-((S)-1-acryloyl-4-((S)-2-(((S)-1-methylpyrrolidin-2-yl)methoxy)-7-(naphthalen-1-yl)-7,8-dihydro-5H-pyrano[4,3-d]pyrimidin-4-yl)piperazin-2-yl)acetonitrile] |
